The nature of this series: Inhibition of human ERG expressed in HEK293 cells assessed as reduction in S35-MK-0499 binding.

Our source for the IC50 values is BindingDB's records for doi:10.1016/j.bmcl.2016.04.018 (Merck Research Laboratories, 2016).

Take `O=C(Nc1cccc(Cl)c1)N1CCOc2ccc(-c3ccncc3)cc2C1`: the IC50 stood at 8.34 µM.

The term IC50 denotes the midpoint of a concentration-inhibition curve.
